Test results reported in patent publication US12343352B2, “N-(phenylsulfonyl)benzamides and related compounds as Bcl-2 inhibitors” (ASCENTAGE PHARMA (SUZHOU) CO., LTD., priority 2019, dated 2025).

Columns and labels:
CYP enzymes = assay: Comparative metabolism studies: metabolizing CYP enzymes and CYP inhibition/induction (liver microsome assays); format: in vitro ADME
Experimental: (§1) Metabolism studies of Compound 1 and Compound Z were evaluated in both mouse and dog liver microsome assays.

[1] = Mouse liver microsome assay / metabolites in mouse plasma; format: in vitro ADME
Experimental: as §1

[2] = Dog liver microsome assay / metabolites in dog plasma; format: in vitro ADME
Experimental: as §1

[3] = Steady state pharmacokinetics in patients following multiple oral doses; format: in vivo; settings: human, plasma, multiple oral doses of 400 mg once daily; for AUC(0-t): read-out: AUC(0-24 h); for half-life: read-out: T½ (converted)
[4] = Pharmacokinetic properties of Compound 1 compared with Compound Z (systemic exposure and tumor tissues); format: in vivo; settings: versus Compound Z
[5] = Metabolites in human plasma; format: in vivo

mainly metabolized by (CYP enzymes) (CYP enzymes; mouse, dog, microsomes) | major metabolite (>10%) in mouse plasma ([1]; mouse liver microsome assay) | metabolites found in dog plasma [2] | Cmax [3] [ng/mL] | Tmax [3] [h] | AUC(0-t) [3] [ng·h/mL] | half-life [3] [h] | Cmax in systemic exposure relative to Compound Z ([4]; systemic exposure) | half-life in systemic exposure relative to Compound Z ([4]; systemic exposure) | Cmax in tumor tissues relative to Compound Z ([4]; tumor tissues) | half-life in tumor tissues relative to Compound Z ([4]; tumor tissues) | mainly metabolized by (CYP enzymes) (CYP enzymes; mouse and dog liver microsome assays) | other metabolites found in mouse plasma ([1]; mouse plasma) | major metabolite (>10%) in human plasma [5] | Structure (SMILES) | inhibition or induction of major CYP enzymes (CYP enzymes)
CYP3A4 and CYP2C8 | amide bond hydrolysis M2 | minor oxidation metabolites | 970 | 6 | 9960 | 4.43 | higher | shorter | higher | similar | – | – | – | O=C(NS(=O)(=O)c1ccc(NC[C@H]2COCCO2)c([N+](=O)[O-])c1)c1ccc(N2CCN(CC3=C(c4ccc(Cl)cc4)CC4(CCC4)CC3)CC2)cc1Oc1cnc2[nH]ccc2c1 [Compound 1, (S)-N-((4-(((1,4-dioxan-2-yl)methyl)amino)-3-nitrophenyl)sulfonyl)-2-((1H-pyrrolo[2,3-b]pyridin-5-yl)oxy)-4-(4-((6-(4-chlorophenyl)spiro[3.5]non-6-en-7-yl)methyl)piperazin-1-yl)benzamide] | not found to inhibit or induce any major CYP enzymes
– | – | minor oxidation metabolites | 2180 | 7 | 35500 | 26 | – | – | – | – | CYP3A4 and CYP3A5 | minor oxidation metabolites | oxidative metabolite M27 | CC1(C)CCC(CN2CCN(c3ccc(C(=O)NS(=O)(=O)c4ccc(NCC5CCOCC5)c([N+](=O)[O-])c4)c(Oc4cnc5[nH]ccc5c4)c3)CC2)=C(c2ccc(Cl)cc2)C1 [Compound Z, Venetoclax, reference compound] | –
